Test results: patent US9265735B2, “Methods for screening to identify therapeutic agents for Alzheimer's disease and use thereof” (New York University, priority 2010, dated 2016)
“Also recorded” adds a separate entry of the source.

Experiments:
WT and PS1 KO cells = assay: Intracellular protein degradation (pulse-chase, [3H]-leucine) in WT and PS1 KO blastocysts; type: cell-based, Murine; conditions: serum withdrawal, NH4Cl 20 mM, 3MA 10 mM
Procedure: (§1) Total protein degradation in cultured cells was measured by pulse-chase experiments (Auteri et al., 1983, J Cell Physiol 115, 167-174). Confluent cells were labeled with [^3H]-leucine (2 μCi/ml) for 48 hrs at 37° C. in order to preferentially label long-lived proteins. Following labeling, cells were extensively washed and maintained in complete medium (DMEM+10% fetal bovine serum), under which conditions autophagy is suppressed, or in serum-deprived medium, where autophagy is induced. Under both conditions, after washing the cells, the medium was supplemented with unlabeled 2.8 mM leucine to prevent [^3H]-leucine reincorporation into newly synthesized proteins. Aliquots of the medium taken at different time-points were precipitated with 10% TCA, filtered using a 0.22 μm pore membrane and radioactivity in the flow-through was measured. Proteolysis is expressed as the percentage of the initial acid-precipitable radioactivity (protein) transformed to acid-soluble radioactivity (amino acids and small peptides) over time. To inhibit autophagy in this system, 20 mM NH4Cl or 10 mM 3MA was added immediately after the labeling period and maintained at that concentration throughout the chase. […] Protein synthesis was determined as the incorporation of [^3H]leucine into acid-insoluble material in the presence of an excess (2.8 mM) unlabeled leucine in the medium. […]

PS1KO blastocysts = assay: Lysosomal pH measurement with Dextran conjugated Lysosensor Yellow/Blue in PS1KO cells; type: cell-based, Murine; conditions: for effect of pretreatment on the action of isoproterenol on lysosomal pH / effect on elevated lysosomal pH in PS1KO cells: PS1KO cells; for effect of pretreatment on the action of isoproterenol on lysosomal pH: pretreatment before isoproterenol, FIG. 10F; for effect on elevated lysosomal pH in PS1KO cells: FIG. 10A/G; for lysosomal pH after treatment relative to WT lysosomal pH (ANOVA, Dunnet's post-test): PS1KO blastocysts, FIG. 11
Procedure: For results presented in Example 1, quantification of lysosomal pH was determined using Dextran conjugated Lysosensor Yellow/Blue DND-160 (Invitrogen) as follows. Wild Type and PS1KO blastocysts were grown in High Glucose DMEM+15% FBS with antibiotics to ˜90% confluency. Cells were then trypsinized, harvested (1×10^6 cells/ml) and loaded with 1 mg/ml of Lysosensor-dextran for 1 hour at 37° C. with 5% CO2. The cells were then washed 3× in HBSS and aliquoted at […] into a black 96-well microplate. pH calibration was performed according to the protocol established by Diwu et al (Diwu et al., (1999). Chem Biol 6, 411-418). Briefly, wild type and PS1KO blastocysts were treated with 10 μM monensin and 10 uM nigericin in MES buffer (5 mM NaCl, 115 mM KCL, 1.3 mM MgSO4, 25 mM MES), with the pH adjusted to a range from 3.5-7.0. The samples were read in a Wallac Victor 2 fluorimeter (Perkin Elmer) with excitation at 355 nm. The ratio of emission 440/535 nm was then calculated for each sample. The pH values were determined from the linear standard curve generated via the pH calibration samples.
In a more particular embodiment, quantification of lysosomal pH is determined using Dextran conjugated Lysosensor Yellow/Blue (Invitrogen) as follows. 3000 Wild Type and PS1KO blastocysts were seeded in multiple wells of black, clear bottom tissue culture treated 96 well dish and grown in High Glucose DMEM+15% FBS with antibiotics to ˜90% confluency (˜24 hours). 2 ul of 0.5 mg/ml lysosensor-dextran (1:100 dilution of a 5 mg/ml stock) was added and incubated for 1 hour at 37° C. with 5% CO2. The cells were then washed 3× in HBSS. See also methods and results set forth herein below in Example 2. This modified protocol represents an optimized protocol for the purposes set forth herein.
(§2) Quantification of lysosomal pH was determined using Dextran conjugated Lysosensor Yellow/Blue (Invitrogen). 3000 Wild Type and PS1KO blastocysts were seeded in multiple wells of black, clear bottom tissue culture treated 96 well dish and grown in High Glucose DMEM+15% FBS with antibiotics to ˜90% confluency (˜24 hours). 2 ul of 0.5 mg/ml lysosensor-dextran (1:100 dilution of a 5 mg/ml stock) was added and incubated for 1 hour at 37° C. with 5% CO2. The cells were then washed 3× in HBSS.
Performed according to the protocol established by Diwu et al (supra). Briefly, wild type and PS1KO blastocysts were treated with 10 uM monensin and 10 uM nigericin in MES buffer (5 mM NaCl, 115 mM KCL, 1.3 mM MgSO4, 25 mM MES), with the pH adjusted to a range from 3.5-7.0 for 7-10 min prior to lysosensor addition (the additional hour in the buffer seems to have no effect), these cells are not washed in HBSS since permeabilization with ionophores makes them susceptible to detachment.
(§3) The samples were read in a Wallac Victor 2 fluorimeter (Perkin Elmer) with excitation at 355 nm. The ratio of emission 440 nm/535 nm was then calculated for each sample. pH values were determined from the linear std curve generated via the pH calibration samples.

[1] = test system: PS1-FAD human fibroblasts; assay: Intracellular protein degradation (pulse-chase) in control and PS1-FAD fibroblasts; type: cell-based; conditions: serum withdrawal; NH4Cl treatment
Procedure: as §1

Cat B [2] = assay: MR-Cat B signal in WT cells; type: cell-based, Murine; conditions: NH4Cl treated WT cells
Procedure: (§4) Immunocytochemistry was performed as previously described (Yu et al., 2005). Secondary antibodies used were from Invitrogen: goat anti-mouse/rabbit/rat Alexa Fluor 488 and goat anti-mouse/rabbit/rat Alexa Fluor 568. Cells were imaged using a plan-Apochromat 40× or 100×/1.4 oil DIC objective lens on the laser scanning confocal microscope, LSM 510 META, with LSM software v3.5 (Carl Zeiss MicroImaging Inc). Images were analysed using ImageJ program (NIH). Organelles with low internal pH were labeled by LysoTracker DND-99 dye (Invitrogen) at the final 100 nM for 30 min. Following 4% PFA fixation, cells were further counter stained with Cat D, LMAP1, or LC3 antibody for 4 hrs then visualized with Alexa Fluor 488 conjugated secondary antibody. Active Cat D was labeled by adding Bodipy-FL-pepstatin A directly to the medium at a final concentration of 1 μg/ml for 1 hr. Following 4% PFA fixation, cells were counter stained with Cat D antibody for 4 hrs and visualized with Alexa Fluor 568 conjugated secondary antibody. […] Cells were incubated for 30 min with MR-Cathepsin B prior to mounting them under the confocal microscope. […]
(§5) Active Cat D was labeled by adding Bodipy-FL-pepstatin A directly to the medium at a final concentration of 1 mg/ml for 1 hr. […] Cat B staining with MagicRed-Cathepsin B was also measured fluorometrically with a Wallac Victor 2 fluorometer.

Cat D = target: T1, Cat D (Mus musculus, UniProt P18242); assay: Active Cat D labeling with Bodipy-FL-pepstatin A in WT cells; type: cell-based, Murine; conditions: NH4Cl
T1 construct: endogenous in cells; host or cells: WT murine blastocyst cells (BD6)
Procedure: Immunocytochemistry was performed as previously described (Yu et al., 2005). Secondary antibodies used were from Invitrogen: goat anti-mouse/rabbit/rat Alexa Fluor 488 and goat anti-mouse/rabbit/rat Alexa Fluor 568. Cells were imaged using a plan-Apochromat 40× or 100×/1.4 oil DIC objective lens on the laser scanning confocal microscope, LSM 510 META, with LSM software v3.5 (Carl Zeiss MicroImaging Inc). Images were analysed using ImageJ program (NIH). Organelles with low internal pH were labeled by LysoTracker DND-99 dye (Invitrogen) at the final 100 nM for 30 min. Following 4% PFA fixation, cells were further counter stained with Cat D, LMAP1, or LC3 antibody for 4 hrs then visualized with Alexa Fluor 488 conjugated secondary antibody. Active Cat D was labeled by adding Bodipy-FL-pepstatin A directly to the medium at a final concentration of 1 μg/ml for 1 hr. Following 4% PFA fixation, cells were counter stained with Cat D antibody for 4 hrs and visualized with Alexa Fluor 568 conjugated secondary antibody. […] Cells were incubated for 30 min with MR-Cathepsin B prior to mounting them under the confocal microscope. To block v-ATPase proton pump activity, ammonium chloride (NH4Cl) was added directly to the medium at a final concentration of 20 mM for 6 hrs prior to LysoTracker addition.

WT blastocysts = assay: Validation of lysosomal pH measurement in WT blastocysts; type: cell-based, Murine; conditions: FIG. 9A
Procedure: as §2
Performed according to the protocol established by Diwu et al (supra). […]
as §3
At the outset, the validity of the method described herein to measure lysosomal pH is confirmed. See, for example, FIG. 9A-D. More particularly, to assess the validity of the method of quantifying lysosomal pH, WT blastocysts were treated with chloroquine (CQ), which is known to elevate lysosomal pH. […]

[3] = in vivo; cited from earlier work
LC3-II = LC3-II levels by immunoblot / LC3 puncta in WT and PS1 KO cells; type: cell-based, Murine; conditions: 6 hrs
Procedure: (§6) Immunoblotting was performed as previously described (Yu et al., 2005). Briefly, cells used for Western blot analysis were lysed in buffer containing 50 mM Tris (pH=7.4), 150 mM NaCl, 1 mM EDTA, 1 mM EGTA, 1% Triton X-100 and 0.5% Tween-20 with protease and phosphatase inhibitors. Following electrophoresis on 4-20% gradient gel (Invitrogen), proteins were transferred onto 0.45 μm PVDF membranes (Millipore) and the membrane was incubated overnight in primary antibody then incubated with HRP conjugated secondary antibody. The blot was developed by ECL-kit (GE Healthcare). To assess v-ATPase V0a subunit glycosylation, lysate from WT and PS1KO cells were either treated for 24 hrs at 37° C. with PNGase F or O-glycanase using an enzymatic deglycosylation kit according to the manufacturer's instructions (PROzyme) or with Endo H (New England Biolabs) for 24 hrs at 37° C. Total glycoproteins were isolated using Glycoprotein Isolation Kit, ConA according to the manufacturer's instructions (Thermo Scientific).
Immunocytochemistry was performed as previously described (Yu et al., 2005). Secondary antibodies used were from Invitrogen: goat anti-mouse/rabbit/rat Alexa Fluor 488 and goat anti-mouse/rabbit/rat Alexa Fluor 568. […] Images were analysed using ImageJ program (NIH). […]

Cat B [4] = assay: Cat B activity by MagicRed-Cathepsin B (MR-Cat B) in PS1KO cells; type: cell-based, Murine; conditions: PS1 KO cells
Procedure: as §4, §5

v-ATPase V0a1 subunit = assay: v-ATPase V0a1 glycosylation state in WT cells (immunoblot); type: cell-based, Murine; conditions: 100-kDa with vs 120-kDa without tunicamycin
Procedure: as §6

T1 sequence (P18242 65-410): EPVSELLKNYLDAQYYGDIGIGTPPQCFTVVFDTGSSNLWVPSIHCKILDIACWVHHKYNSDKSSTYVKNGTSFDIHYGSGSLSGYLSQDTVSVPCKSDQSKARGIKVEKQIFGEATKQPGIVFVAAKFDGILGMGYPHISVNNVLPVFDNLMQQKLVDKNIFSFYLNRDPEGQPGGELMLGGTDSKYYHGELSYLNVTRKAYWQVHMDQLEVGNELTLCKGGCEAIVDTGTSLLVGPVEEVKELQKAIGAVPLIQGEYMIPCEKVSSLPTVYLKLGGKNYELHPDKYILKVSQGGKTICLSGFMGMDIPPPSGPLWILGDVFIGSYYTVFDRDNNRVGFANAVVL
v-ATPase V0a1 subunit, sequence (Q9Z1G4 whole entry): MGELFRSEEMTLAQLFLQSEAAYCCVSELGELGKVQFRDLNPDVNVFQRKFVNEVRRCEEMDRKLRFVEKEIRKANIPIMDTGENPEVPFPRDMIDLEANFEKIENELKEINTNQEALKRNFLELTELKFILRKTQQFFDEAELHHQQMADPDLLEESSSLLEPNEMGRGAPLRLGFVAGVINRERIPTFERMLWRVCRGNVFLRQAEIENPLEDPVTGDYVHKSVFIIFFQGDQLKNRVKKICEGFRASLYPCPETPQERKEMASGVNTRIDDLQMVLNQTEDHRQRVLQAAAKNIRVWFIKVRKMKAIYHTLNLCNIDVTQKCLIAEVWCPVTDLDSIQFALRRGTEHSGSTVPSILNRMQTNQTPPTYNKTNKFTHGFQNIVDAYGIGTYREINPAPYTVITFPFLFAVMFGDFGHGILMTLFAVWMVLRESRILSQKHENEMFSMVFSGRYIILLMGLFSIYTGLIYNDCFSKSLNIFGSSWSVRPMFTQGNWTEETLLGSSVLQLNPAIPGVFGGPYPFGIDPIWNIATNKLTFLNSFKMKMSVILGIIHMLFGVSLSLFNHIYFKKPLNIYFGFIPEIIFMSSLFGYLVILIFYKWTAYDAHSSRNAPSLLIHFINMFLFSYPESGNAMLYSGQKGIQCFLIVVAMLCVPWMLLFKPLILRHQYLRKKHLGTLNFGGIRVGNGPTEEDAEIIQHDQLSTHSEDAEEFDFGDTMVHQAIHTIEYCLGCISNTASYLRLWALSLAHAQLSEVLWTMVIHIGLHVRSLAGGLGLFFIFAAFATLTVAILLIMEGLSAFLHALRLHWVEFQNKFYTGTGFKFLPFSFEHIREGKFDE

Cn1cnc(N)c2ncnc1-2 [3-methyladenine]
increase in proteolysis after serum removal (WT and PS1 KO cells): only the increased proteolysis in WT cells was blocked

O=S(=O)(NCCNC/C=C/c1ccc(Br)cc1)c1cccc2cnccc12 [H89]
effect of pretreatment on the action of isoproterenol on lysosomal pH (PS1KO blastocysts): prevent the action of isoproterenol

Cl.N [NH4Cl, ammonium chloride]
difference in proteolytic rates between control and PS1-FAD fibroblasts [1]: eliminated the difference in proteolytic rates between the two cell groups
MR-Cat B signal (Cat B [2]): minimal
increase in proteolysis after serum removal (WT and PS1 KO cells): entirely blocked the increase of proteolysis in both cell types
Bodipy-FL-pepstatin A labeling of Cat D-positive compartments (active Cat D) (Cat D): nearly completely abolished; also recorded: minimal colocalization

C=CCc1ccccc1OCC(O)CNC(C)C (stereo not shown) [alprenolol]
effect on elevated lysosomal pH in PS1KO cells (PS1KO blastocysts): did not affect lysosomal pH; also recorded: remains unchanged

CCN(CC)CCCC(C)Nc1ccnc2cc(Cl)ccc12 (stereo not shown) [chloroquine]
lysosomal pH of WT blastocysts (WT blastocysts): significantly elevated WT lysosomal pH

CC(C)(C)NCC(O)c1cc(Cl)c(N)c(Cl)c1 (stereo not shown) [clenbuterol]
consequences on lysosomal pH and autophagy in PS1-deleted cells (PS1KO blastocysts; PS1-deleted cells, clinically relevant concentrations): desired consequences on lysosomal pH and autophagy
lysosomal pH after treatment relative to WT lysosomal pH (ANOVA, Dunnet's post-test) (PS1KO blastocysts): did not possess significant difference from WT lysosomal pH; also recorded: did not differ significantly from that of WT lysosomal pH
effect on elevated lysosomal pH in PS1KO cells (PS1KO blastocysts): normal levels or even hyperacidic levels; also recorded: restored to WT levels
crossing of the blood brain barrier (BBB) [3]: cross the blood brain barrier

COc1cc(/C=C/C(=O)CC(=O)/C=C/c2ccc(O)c(OC)c2)ccc1O [curcumin]
lysosomal pH after treatment relative to WT lysosomal pH (ANOVA, Dunnet's post-test) (PS1KO blastocysts): reduces lysosomal pH in excess of WT acidity

CC(=O)N[C@@H](CC(C)C)C(=O)N[C@@H](CC(C)C)C(=O)N[C@H](C=O)CCCNC(=N)N [leupeptin]
LC3 levels in PS1 KO cells (LC3-II; PS1 KO cells, 0.3 mM): did not increase LC3 levels
LC3-II levels in WT cells (LC3-II; WT cells, rapamycin acute induction, leupeptin 0.3 mM): significantly elevated LC3-II levels and LC3-positive puncta

CNC[C@H](O)c1cccc(O)c1 [phenylepherine]
effect on elevated lysosomal pH in PS1KO cells (PS1KO blastocysts): did not affect lysosomal pH; also recorded: remains unchanged

CC(C)NCC(O)COc1cccc2ccccc12 (stereo not shown) [propranol]
effect of pretreatment on the action of isoproterenol on lysosomal pH (PS1KO blastocysts): prevent the action of isoproterenol

Oc1ccc(C=Cc2cc(O)cc(O)c2)cc1 [resveratrol]
active Cat B in PS1 KO cells (Cat B [4]): partially restoring active Cat B

COc1ccc(C2CNC(=O)C2)cc1OC1CCCC1 (stereo not shown) [rolipram]
lysosomal pH after treatment relative to WT lysosomal pH (ANOVA, Dunnet's post-test) (PS1KO blastocysts): did not differ significantly from that of WT lysosomal pH
lysosomal pH after treatment relative to WT lysosomal pH (ANOVA, Dunnet's post-test) (PS1KO blastocysts; listed as Rolipram): did not possess significant difference from WT lysosomal pH
effect on elevated lysosomal pH in PS1KO cells (PS1KO blastocysts): decreased lysosomal pH

tunicamycin
gel mobility of v-ATPase V0a1 subunit (v-ATPase V0a1 subunit): increase in mobility
